Measured values published in patent US20210181183A1, “METHODS FOR DETERMINING SELECTIVITY OF TEST COMPOUNDS” (CEMM - FORSCHUNGSZENTRUM FÜR MOLEKULARE MEDIZIN GmBH, priority 2017, published 2021).

Experiments:
[1] = test system: CD20+ cells over CD20- cells of a B-cell lymphoblastic lymphoma patient; test: ex vivo selectivity of compounds to kill cancerous versus non-cancerous cells, pleural effusion of B-LBL patient (Example 7); type: cell-based, human; details: fraction of live cancerous cells of live total cells relative to DMSO control, <1 = selectively kills cancerous cells
[2] = test system: CD79a+ cells over CD79a- cells of a diffuse large B-cell lymphoma patient; test: ex vivo selectivity of compounds to kill cancerous versus non-cancerous cells, excised lymph node of DLBCL patient (Example 8); type: cell-based, human; details: fraction of live cancerous cells of live total cells relative to DMSO control; dissociated lymph node cells; <1 = selectively kills cancerous cells
Experimental: Monolayers were incubated overnight (18 h). […] Unstained cells were considered non-cancerous cells.

| SMILES | value/selectivity determined according to the present invention [1] | value/selectivity [2] |
| --- | --- | --- |
| CC(C)C[C@H](NC(=O)[C@H](Cc1ccccc1)NC(=O)c1cnccn1)B(O)O [bortezomib] | 0.50 | 0.59 |
| Sc1ncnc2nc[nH]c12 [6-mercaptopurine] | 0.58 |  |
| Nc1nc(Cl)nc2c1ncn2[C@H]1C[C@H](O)[C@@H](CO)O1 [cladribine] |  | 0.73 |
